Results from patent publication US7977313B2, “Methods and compositions for promoting localization of pharmaceutically active agents to bone” (Affinergy, Inc., priority 2007, dated 2011).
Like-named read-outs stand apart in the source and are kept apart here. Where a SMILES comes first, the peptide text is derived from it. Where no end group is shown, it is not given here. [ ]: non-standard residue; d: D form. The star is where a group is joined. Biotin = O=C1N[C@H]2[C@H](CS[C@H]2CCCCC(=O)*)N1; PEG10 = NCCOCCOCCOCCOCCOCCOCCOCCOCCOCCOCCC(=O)O

Columns and labels:
[1] = molecular target: cancellous bone (CNB); assay: Biotinylated peptide binding to cancellous bone
Description: (§1) Relative binding strengths of the peptides to bone, also used as a measure of binding specificity, were determined by testing serial dilutions of the peptide for binding to bone, as represented by DBM. Plotting the absorbance observed across the concentration range for each peptide sequence yielded a binding curve of the peptides to its target substrate from which can be determined an EC50. The goal of the screenings and selections was to identify one or more peptides that bind to the selected substrate with binding specificity, with an EC50 of less than or equal to about 10 μM, and for some embodiments, in the nanomolar range (<1 μM). […] As a specific example, DBM was placed in a microtiter plate at a concentration of 3 mg equivalents per well, and then the wells were blocked with buffer containing 1% BSA for 1 hour at room temperature. The buffer containing 1% BSA was then aspirated from each well, and added to the wells were the serial dilutions of biotinylated peptide. The microtiter plates were incubated for 1 hour at room temperature on a plate shaker. The DBM was then allowed to settle, and the buffer was then aspirated from the wells. The DBM was washed three times with buffer-T, and then streptavidin-alkaline phosphatase was added. The microtiter plates were incubated for 1 hour at room temperature on a plate shaker. The DBM was then allowed to settle, and the buffer was then aspirated from the wells. The DBM was washed three times with buffer-T, pNPP (p-nitrophenyl phosphate) was used to develop the assay, and the absorbance was recorded at 405 nm. An estimate of the relative affinity (binding specificity, EC50) of a peptide for bone can be made by determining the concentration of peptide that gives one-half the maximal signal in the assay. Using the methodology illustrated in Example 1, the peptides illustrated in Table 3 were also tested for relative binding strength to demineralized cortical bone, and to cancellous bone, additional evidence of binding specificity for bone.

[2] = molecular target: demineralized bone matrix (DBM); assay: Biotinylated peptide binding to demineralized bone matrix (ELISA-type, streptavidin-alkaline phosphatase/pNPP); set-up: species or system human
Description: Relative binding strengths of the peptides to bone, also used as a measure of binding specificity, were determined by testing serial dilutions of the peptide for binding to bone, as represented by DBM. Plotting the absorbance observed across the concentration range for each peptide sequence yielded a binding curve of the peptides to its target substrate from which can be determined an EC50. The goal of the screenings and selections was to identify one or more peptides that bind to the selected substrate with binding specificity, with an EC50 of less than or equal to about 10 μM, and for some embodiments, in the nanomolar range (<1 μM).
As a specific example, DBM was placed in a microtiter plate at a concentration of 3 mg equivalents per well, and then the wells were blocked with buffer containing 1% BSA for 1 hour at room temperature. The buffer containing 1% BSA was then aspirated from each well, and added to the wells were the serial dilutions of biotinylated peptide. The microtiter plates were incubated for 1 hour at room temperature on a plate shaker. The DBM was then allowed to settle, and the buffer was then aspirated from the wells. The DBM was washed three times with buffer-T, and then streptavidin-alkaline phosphatase was added. The microtiter plates were incubated for 1 hour at room temperature on a plate shaker. The DBM was then allowed to settle, and the buffer was then aspirated from the wells. The DBM was washed three times with buffer-T, pNPP (p-nitrophenyl phosphate) was used to develop the assay, and the absorbance was recorded at 405 nm. An estimate of the relative affinity (binding specificity, EC50) of a peptide for bone can be made by determining the concentration of peptide that gives one-half the maximal signal in the assay.
Example 1 illustrates methods to determine the relative binding strengths of peptide to bone. […] A biotin molecule was linked to the C-terminal lysine. Also shown in Table 3 are the relative binding strengths expressed as EC50 (μM) to bone as represented by DBM of human origin. It is noted that the EC50 values were the same or substantially similar when DBM of rabbit origin was used.
Relative binding strength embodiments of the compositions to bone, also used as a measure of binding specificity, were determined by testing serial dilutions of the composition for binding to bone, as described in Example 1 Section B. Plotting the absorbance observed across the concentration range for each composition yielded a binding curve and rough dissociation constant of the composition for bone. Similar to a peptide having binding specificity for bone from which the composition is made, one property of the composition embodiments is that they bind to bone with binding specificity as measured by an EC50 of less than or equal to about 10 μM, and for some embodiments, in the nanomolar range (<1 μM). Using the methods outlined in Example 1B herein, assayed were the relative binding strengths of […] illustrative composition embodiments which include the amino acid sequences shown in SEQ ID NOs: 137, 138, 139, 140, 141 & 142, see Table 7, and synthesized to include a C-terminal amino linker which was biotinylated to facilitate determination of the relative binding strengths to bone. Shown in Table 8 are the relative binding strengths of composition embodiments to bone, as represented by DBM, expressed as EC50 (in μM).

[3] = molecular target: demineralized cortical bone (DCB); assay: Biotinylated peptide binding to demineralized cortical bone
Description: as §1

[4] = DBM of human origin, biotinylated peptide, read-out: Binding specificity for bone (e.g., DBM) EC50
[5] = demineralized bone matrix, read-out: EC50 (μM) for DBM
[6] = bone as represented by DBM, biotinylated composition, read-out: Binding specificity for bone EC50 (compositions X1-J-X2)

EC50 [1]	EC50 [2, 4]	EC50 [2, 5]	EC50 [3]	EC50 [2, 6]	Compound
< 1 µM	< 1 µM	< 1 µM	< 1 µM	–	CC[C@H](C)[C@H](NC(=O)[C@@H](N)CO)C(=O)N[C@@H](Cc1ccccc1)C(=O)N[C@@H](CO)C(=O)N[C@H](C(=O)N[C@@H](Cc1c[nH]c2ccccc12)C(=O)N[C@@H](CC(N)=O)C(=O)N1CCC[C@H]1C(=O)N[C@@H](Cc1c[nH]c2ccccc12)C(=O)N[C@@H](CO)C(=O)N1CCC[C@H]1C(=O)N[C@@H](Cc1ccc(O)cc1)C(=O)N[C@@H](CO)C(=O)N[C@H](C(=O)N[C@@H](CO)C(=O)N[C@@H](CCCNC(=N)N)C(=O)NCC(=O)N[C@@H](CO)C(=O)N[C@@H](CO)C(=O)NCC(=O)N[C@@H](CCCCNC(=O)CCCC[C@@H]1SC[C@@H]2NC(=O)N[C@@H]21)C(=O)O)C(C)C)[C@@H](C)O [compound 40] (H-SIFSTWNPWSPYSVSRGSSGK(Biotin)-OH)
≤ 0.1 µM	< 0.1 µM	< 0.1 µM	< 0.1 µM	–	CC(C)[C@H](NC(=O)[C@@H]1CCCN1C(=O)[C@H](C)NC(=O)[C@H](C)NC(=O)[C@H](CO)NC(=O)CNC(=O)[C@H](CC(N)=O)NC(=O)[C@H](Cc1c[nH]c2ccccc12)NC(=O)[C@H](Cc1ccccc1)NC(=O)CNC(=O)[C@H](Cc1c[nH]c2ccccc12)NC(=O)[C@H](Cc1c[nH]c2ccccc12)NC(=O)[C@@H](N)CO)C(=O)N[C@@H](Cc1c[nH]c2ccccc12)C(=O)N[C@@H](CO)C(=O)N[C@@H](CCCNC(=N)N)C(=O)NCC(=O)N[C@@H](CO)C(=O)N[C@@H](CO)C(=O)NCC(=O)N[C@@H](CCCCNC(=O)CCCC[C@@H]1SC[C@@H]2NC(=O)N[C@@H]21)C(=O)O [compound 41] (H-SWWGFWNGSAAPVWSRGSSGK(Biotin)-OH)
< 0.5 µM	< 0.1 µM	< 0.1 µM	< 0.1 µM	–	C[C@H](NC(=O)CNC(=O)[C@H](CO)NC(=O)CNC(=O)[C@H](Cc1c[nH]c2ccccc12)NC(=O)[C@H](Cc1c[nH]c2ccccc12)NC(=O)[C@H](Cc1c[nH]c2ccccc12)NC(=O)[C@H](CO)NC(=O)CNC(=O)[C@H](Cc1ccccc1)NC(=O)[C@@H](N)CO)C(=O)N[C@@H](C)C(=O)N[C@@H](CO)C(=O)N[C@@H](CO)C(=O)N[C@@H](CCCNC(=N)N)C(=O)NCC(=O)N[C@@H](CO)C(=O)N[C@@H](CO)C(=O)NCC(=O)N[C@@H](CCCCNC(=O)CCCC[C@@H]1SC[C@@H]2NC(=O)N[C@@H]21)C(=O)O [compound 42] (H-SFGSWWWGSGAASSRGSSGK(Biotin)-OH)
–	–	–	–	< 0.1 µM	CC(C)C[C@H](NC(=O)[C@H](CO)NC(=O)[C@H](CO)NC(=O)[C@H](Cc1ccccc1)NC(=O)[C@H](C)NC(=O)[C@H](CCC(=O)O)NC(=O)[C@H](Cc1c[nH]c2ccccc12)NC(=O)[C@H](C)NC(=O)CNC(=O)[C@H](C)NC(=O)CNC(=O)[C@H](CO)NC(=O)[C@H](CO)NC(=O)CNC(=O)[C@H](CCCNC(=N)N)NC(=O)[C@H](CO)NC(=O)[C@H](Cc1c[nH]c2ccccc12)NC(=O)[C@@H](NC(=O)[C@@H]1CCCN1C(=O)[C@H](C)NC(=O)[C@H](C)NC(=O)[C@H](CO)NC(=O)CNC(=O)[C@H](CC(N)=O)NC(=O)[C@H](Cc1c[nH]c2ccccc12)NC(=O)[C@H](Cc1ccccc1)NC(=O)CNC(=O)[C@H](Cc1c[nH]c2ccccc12)NC(=O)[C@H](Cc1c[nH]c2ccccc12)NC(=O)[C@@H](N)CO)C(C)C)C(=O)N[C@@H](CO)C(=O)NCC(=O)N[C@@H](CO)C(=O)N[C@@H](CCCNC(=N)N)C(=O)N[C@H](C(=O)NCC(=O)N[C@@H](CO)C(=O)N[C@@H](CO)C(=O)NCC(=O)N[C@@H](CCCCNC(=O)CCCC[C@@H]1SC[C@@H]2NC(=O)N[C@@H]21)C(=O)O)C(C)C [compound 138] (H-SWWGFWNGSAAPVWSRGSSGAGAWEAFSSLSGSRVGSSGK(Biotin)-OH; N-terminus and C-terminus assumed)
–	–	–	–	< 0.5 µM	CC(C)C[C@H](NC(=O)[C@H](CO)NC(=O)[C@H](CO)NC(=O)[C@H](Cc1ccccc1)NC(=O)[C@H](C)NC(=O)[C@H](CCC(=O)O)NC(=O)[C@H](Cc1c[nH]c2ccccc12)NC(=O)[C@H](C)NC(=O)CNC(=O)CNC(=O)CNC(=O)CCOCCOCCOCCOCCOCCOCCOCCOCCOCCOCCNC(=O)CNC(=O)[C@H](CCCNC(=N)N)NC(=O)[C@H](CO)NC(=O)[C@H](CO)NC(=O)[C@H](C)NC(=O)[C@H](C)NC(=O)CNC(=O)[C@H](CO)NC(=O)CNC(=O)[C@H](Cc1c[nH]c2ccccc12)NC(=O)[C@H](Cc1c[nH]c2ccccc12)NC(=O)[C@H](Cc1c[nH]c2ccccc12)NC(=O)[C@H](CO)NC(=O)CNC(=O)[C@H](Cc1ccccc1)NC(=O)[C@@H](N)CO)C(=O)N[C@@H](CO)C(=O)NCC(=O)N[C@@H](CO)C(=O)N[C@@H](CCCNC(=N)N)C(=O)N[C@H](C(=O)NCC(=O)N[C@@H](CO)C(=O)N[C@@H](CO)C(=O)NCC(=O)N[C@@H](CCCCNC(=O)CCCC[C@@H]1SC[C@@H]2NC(=O)N[C@@H]21)C(N)=O)C(C)C [compound 141] (H-SFGSWWWGSGAASSRG[PEG10]GGGAWEAFSSLSGSRVGSSGK(Biotin)-NH2; N-terminus and C-terminus assumed)
–	–	–	–	< 0.5 µM	CC(C)C[C@H](NC(=O)[C@H](CO)NC(=O)[C@H](CO)NC(=O)[C@H](Cc1ccccc1)NC(=O)[C@H](C)NC(=O)[C@H](CCC(=O)O)NC(=O)[C@H](Cc1c[nH]c2ccccc12)NC(=O)[C@H](C)NC(=O)CNC(=O)[C@H](C)NC(=O)CCOCCOCCOCCOCCOCCOCCOCCOCCOCCOCCNC(=O)CNC(=O)[C@H](CCCNC(=N)N)NC(=O)[C@H](CO)NC(=O)[C@H](CO)NC(=O)[C@H](C)NC(=O)[C@H](C)NC(=O)CNC(=O)[C@H](CO)NC(=O)CNC(=O)[C@H](Cc1c[nH]c2ccccc12)NC(=O)[C@H](Cc1c[nH]c2ccccc12)NC(=O)[C@H](Cc1c[nH]c2ccccc12)NC(=O)[C@H](CO)NC(=O)CNC(=O)[C@H](Cc1ccccc1)NC(=O)[C@@H](N)CO)C(=O)N[C@@H](CO)C(=O)NCC(=O)N[C@@H](CO)C(=O)N[C@@H](CCCNC(=N)N)C(=O)N[C@H](C(=O)NCC(=O)N[C@@H](CO)C(=O)N[C@@H](CO)C(=O)NCC(=O)N[C@@H](CCCCNC(=O)CCCC[C@@H]1SC[C@@H]2NC(=O)N[C@@H]21)C(N)=O)C(C)C [compound 142] (H-SFGSWWWGSGAASSRG[PEG10]AGAWEAFSSLSGSRVGSSGK(Biotin)-NH2; N-terminus and C-terminus assumed)
–	–	–	–	< 0.5 µM	SFGSWWWGSGAASSRGSSGGGALGFPLKGEVVEGWAGSSGK(Biotin) [compound 140]
–	–	–	–	< 0.5 µM	SWWGFWNGSAAPVWSRGSSESAGAWEAFSSLSGSRVGSSGK(Biotin) [compound 137]
–	–	–	–	< 0.5 µM	SWWGFWNGSAAPVWSRGSSGAGALGFPLKGEVVEGWAGSSGK(Biotin) [compound 139]
